From patent US8748428B2, “Use of a PKC inhibitor” (Novartis AG, priority 2010, dated 2014)

Key:
IL-6 mRNA in HBL1 cells = test: IL-6 mRNA expression (Taqman); type: cell-based; settings: HBL1, 24 hours, 10 nM to 10 uM
Description: (§1) Constitutive activation of the NFkB pathway is a molecular hallmark of ABC DLBCL cells and is required for their proliferation and survival. See Davis, R. E., et al., J Exp Med, 194(12), 1861-1874 (2001). To confirm that the growth inhibitory effect in response to PKC inhibition is mediated through modulation of NFkB pathway signaling, the expression of NFkB pathway genes were monitored in response to AEB071 treatment. The NFkB-pathway-induced cytokine IL-6 was used as a marker to study NFkB pathway modulation by PKC inhibitors. See Lam, L. T., et al., Blood 111(7):3701-13 (2008). To measure IL-6 mRNA levels, cells were plated in […] plates in 2 ml media at 2M/ml, then treated with DMSO or inhibitors from 10 nM to 10 uM (4-fold dilutions) for 24 hours. Total RNA was harvested using the RNeasy kit (Qiagen, #74104) and cDNA was made from 1 μg total RNA using the High Capacity cDNA kit (ABI, #4368814), according to manufacturer's protocols. Taqman probes (ABI: IL-6, Hs00174131_m1) were used with Gene Expression Master Mix (ABI, 4369510) to determine the amount of mRNA expression for IL-6 relative to an endogenous control gene (ABI: TBP, 4326322E) and the DMSO control using the delta-delta Ct method.

[1] = tested on: IL-6 mRNA in OCI-Ly10 cells; test: IL-6 mRNA expression (Taqman); type: cell-based; settings: OCI-Ly10, 24 hours, 10 nM to 10 uM
Description: as §1

[2] = tested on: IL-6 mRNA in OCI-Ly3 cells; test: IL-6 mRNA expression (Taqman); type: cell-based; settings: OCI-Ly3 (mutant CARD11), 24 hours, 10 nM to 10 uM
Description: as §1

IL-6 mRNA in TMD8 cells = test: IL-6 mRNA expression (Taqman); type: cell-based; settings: TMD8, 24 hours, 10 nM to 10 uM
Description: as §1

[3] = tested on: IL-6 secretion in HBL1 cells; test: IL-6 secretion (Quantikine ELISA); type: cell-based; settings: HBL1, ELISA of supernatant, 48 hours
Description: (§2) The fact that IL-6 is secreted from cells allowed for monitoring of IL-6 levels in cell supernatants. IL-6 secretion was determined by Quantikine ELISA using supernatant from treated cells. Cells were washed and plated at 100,000 cells/well in 100 ul in fresh media in round-bottom 96-well plates (Corning, #3358). The cells were then treated with DMSO or inhibitors at concentrations ranging from 80 nM to 10 uM (2-fold dilutions), and incubated at 37° C. for 48 hours. Then the conditioned media was transferred to v-bottom 96-well plates (Nunc, #12565436). The level of IL-6 secretion was determined by the Quantkine colorimetric ELISA kit from (R & D Systems, #D6050), according to the manufacturer's instructions. For the IL-6 ELISA, the conditioned media was diluted 1:2 with fresh media (except ion: the HBL1 conditioned media was not diluted, it was used 1:1). In FIG. 2, IL-6 secretion for each dose is expressed as a percentage of IL-6 secretion from cells treated with DMSO.

[4] = tested on: IL-6 secretion in TMD8 cells; test: IL-6 secretion (Quantikine ELISA); type: cell-based; settings: Homo sapiens; TMD8, ELISA of supernatant, 48 hours
Description: as §2

TMD8 xenograft = test: Subcutaneous TMD8 xenograft model, tumor growth; type: in vivo, SCID-beige mice; settings: 80 mg/kg, tid, daily oral dosing; p<0.05 vs vehicle
Description: CD79 mutant ABC DLBCL were also shown to be sensitive to PKC inhibition in an in vivo setting by using a subcutaneous TMD8 xenograft model. Female SCID-beige mice were purchased from Charles River Labs (Wilmington Mass.) and housed in temperature and a humidity-controlled vivarium with a 12 hours light cycle and provided food and water ad libitum. Mice were implanted subcutaneously with 10×10^6 TMD8 cells in 50% matrigel (BD Biosciences, #354234) in the right dorsal axillary region, and animals were randomized into treatment groups when tumor sizes average ˜160 mm^3 (21 days post-implantation). AEB071 was formulated in 20% PEG400 and 4.5% 0.1 M HCl in D5W. Tumor volume was measured by callipering in 2 dimensions and calculated as (Length×Width^2)/2. Animals were callipered twice weekly during treatment to monitor effects on tumor growth. […] T/C percentage was calculated as the mean change in tumor volumes of treated animals divided by the mean change in tumor volumes of vehicle animals and multiplied by 100. Data are expressed as mean±SEM, and differences are considered statistically significant at p<0.05 by Student t-test.

Question: Which results are given for CN1CCN(c2nc(C3=C(c4c[nH]c5ccccc45)C(=O)NC3=O)c3ccccc3n2)CC1 [AEB071, 3-(1H-Indol-3-yl)-4-[2-(4-methylpiperazin-1-yl)quinazolin-4-yl]-1H-pyrrole-2,5-dione]?
Answer: IL-6 mRNA expression (IL-6 mRNA in HBL1 cells): dose-dependent decrease; IL-6 mRNA expression [1]: dose-dependent decrease; IL-6 mRNA expression [2]: unaffected; IL-6 mRNA expression (IL-6 mRNA in TMD8 cells): dose-dependent decrease; IC50 [3]: < 200 nM; IC50 [4]: < 200 nM; T/C (tumor growth) (TMD8 xenograft): 17%
